Laboratory results from ChEMBL document CHEMBL1143799, “Synthesis and primary cytotoxicity evaluation of new imidazo[2,1-b]thiazole derivatives” (2007).

Columns and labels:
Assay type in all cases: functional
MOLT-4 = assay: Growth inhibition of human MOLT4 cells after 48 hrs by SRB protein assay; conditions: MOLT-4, 48 h
RPMI-8226 = assay: Growth inhibition of human RPMI8226 cells after 48 hrs by SRB protein assay; conditions: RPMI-8226, 48 h
A549 = assay: Growth inhibition of human A549 cells after 48 hrs by SRB protein assay; conditions: A549, 48 h
EKVX = assay: Growth inhibition of human EKVX cells after 48 hrs by SRB protein assay
HOP-62 = assay: Growth inhibition of human HOP62 cells after 48 hrs by SRB protein assay; conditions: HOP-62, 48 h
HOP-92 = assay: Growth inhibition of human HOP92 cells after 48 hrs by SRB protein assay; conditions: HOP-92, 48 h
NCI-H23 = assay: Growth inhibition of human NCI-H23 cells after 48 hrs by SRB protein assay; conditions: NCI-H23, 48 h
NCI-H322M = assay: Growth inhibition of human NCI-H322M cells after 48 hrs by SRB protein assay
NCI-H460 = assay: Growth inhibition of human NCI-H460 cells after 48 hrs by SRB protein assay; conditions: NCI-H460, 48 h
NCI-H522 = assay: Growth inhibition of human NCI-H522 cells after 48 hrs by SRB protein assay; conditions: NCI-H522, 48 h
COLO 205 = assay: Growth inhibition of human COLO205 cells after 48 hrs by SRB protein assay; conditions: COLO 205, 48 h
HCC 2998 = assay: Growth inhibition of human HCC2998 cells after 48 hrs by SRB protein assay; conditions: HCC 2998, 48 h
HCT-15 = assay: Growth inhibition of human HCT15 cells after 48 hrs by SRB protein assay; conditions: HCT-15, 48 h
KM12 = assay: Growth inhibition of human KM12 cells after 48 hrs by SRB protein assay; conditions: KM12, 48 h
SW-620 = assay: Growth inhibition of human SW620 cells after 48 hrs by SRB protein assay; conditions: SW-620, 48 h
SF-268 = assay: Growth inhibition of human SF268 cells after 48 hrs by SRB protein assay; conditions: SF-268, 48 h
SF-295 = assay: Growth inhibition of human SF295 cells after 48 hrs by SRB protein assay; conditions: SF-295, 48 h
SF-539 = assay: Growth inhibition of human SF539 cells after 48 hrs by SRB protein assay; conditions: SF-539, 48 h
SNB-19 = assay: Growth inhibition of human SNB19 cells after 48 hrs by SRB protein assay; conditions: SNB-19, 48 h
SNB-75 = assay: Growth inhibition of human SNB75 cells after 48 hrs by SRB protein assay; conditions: SNB-75, 48 h
LOX IMVI = assay: Growth inhibition of human LOX IMVI cells after 48 hrs by SRB protein assay
SK-MEL-2 = assay: Growth inhibition of human SK-MEL-2 cells after 48 hrs by SRB protein assay; conditions: SK-MEL-2, 48 h
SK-MEL-28 = assay: Growth inhibition of human SK-MEL-28 cells after 48 hrs by SRB protein assay; conditions: SK-MEL-28, 48 h
UACC-257 = assay: Growth inhibition of human UACC257 cells after 48 hrs by SRB protein assay; conditions: UACC-257, 48 h
UACC-62 = assay: Growth inhibition of human UACC62 cells after 48 hrs by SRB protein assay; conditions: UACC-62, 48 h
OVCAR-3 = assay: Growth inhibition of human OVCAR-3 cells after 48 hrs by SRB protein assay; conditions: OVCAR-3, 48 h
OVCAR-8 = assay: Growth inhibition of human OVCAR8 cells after 48 hrs by SRB protein assay; conditions: OVCAR-8, 48 h
SK-OV-3 = assay: Growth inhibition of human SK-OV-3 cells after 48 hrs by SRB protein assay; conditions: SK-OV-3, 48 h
[1] = Growth inhibition of human 786O cells after 48 hrs by SRB protein assay; conditions: 786-0, 48 h
ACHN = assay: Growth inhibition of human ACHN cells after 48 hrs by SRB protein assay
CAKI-1 = assay: Growth inhibition of human CAKI1 cells after 48 hrs by SRB protein assay; conditions: CAKI-1, 48 h
RXF 393 = assay: Growth inhibition of human RXF393 cells after 48 hrs by SRB protein assay; conditions: RXF 393, 48 h
PC-3 = assay: Growth inhibition of human PC3 cells after 48 hrs by SRB protein assay; conditions: PC-3, 48 h
DU-145 = assay: Growth inhibition of human DU145 cells after 48 hrs by SRB protein assay; conditions: DU-145, 48 h
MCF7 = assay: Growth inhibition of human MCF7 cells after 48 hrs by SRB protein assay; conditions: MCF7, 48 h
MDA-MB-231 = assay: Growth inhibition of MDA-MB-231 cells after 48 hrs by SRB protein assay; conditions: Homo sapiens, MDA-MB-231, 48 h
Hs-578T = assay: Growth inhibition of human HS578T cells after 48 hrs by SRB protein assay
MDA-MB-435 = assay: Growth inhibition of human MDA-MB-435 cells after 48 hrs by SRB protein assay; conditions: MDA-MB-435, 48 h
SK-MEL-5 = assay: Growth inhibition of human SK-MEL-5 cells after 48 hrs by SRB protein assay; conditions: SK-MEL-5, 48 h

COc1cccc(OC)c1/C=N/NC(=O)Cc1csc2nc(-c3ccc(Br)cc3)cn12
GI50 (MOLT-4): 3.47 µM | TGI (MOLT-4; read-out: Log TGI (converted)): 8.13 µM | GI50 (RPMI-8226): 10.2 µM | TGI (RPMI-8226; read-out: Log TGI (converted)): > 100 µM | GI50 (A549): 11.5 µM | TGI (A549; read-out: Log TGI (converted)): 38.9 µM | GI50 (EKVX): 17 µM | TGI (EKVX; read-out: Log TGI (converted)): 57.5 µM | GI50 (HOP-62): 13.2 µM | TGI (HOP-62; read-out: Log TGI (converted)): 30.2 µM | GI50 (HOP-92): 13.8 µM | TGI (HOP-92; read-out: Log TGI (converted)): 35.5 µM | GI50 (NCI-H23): 19.5 µM | TGI (NCI-H23; read-out: Log TGI (converted)): 52.5 µM | GI50 (NCI-H322M): 14.8 µM | TGI (NCI-H322M; read-out: Log TGI (converted)): 61.7 µM | GI50 (NCI-H460): > 100 µM | TGI (NCI-H460; read-out: Log TGI (converted)): > 100 µM | GI50 (NCI-H522): 22.9 µM | TGI (NCI-H522; read-out: Log TGI (converted)): > 100 µM | GI50 (COLO 205): 35.5 µM | TGI (COLO 205; read-out: Log TGI (converted)): > 100 µM | GI50 (HCC 2998): 10 µM | TGI (HCC 2998; read-out: Log TGI (converted)): 34.7 µM | GI50 (HCT-15): 7.41 µM | TGI (HCT-15; read-out: Log TGI (converted)): 64.6 µM | GI50 (KM12): 8.91 µM | TGI (KM12; read-out: Log TGI (converted)): > 100 µM | GI50 (SW-620): 6.46 µM | TGI (SW-620; read-out: Log TGI (converted)): 49 µM | GI50 (SF-268): > 100 µM | TGI (SF-268; read-out: Log TGI (converted)): > 100 µM | GI50 (SF-295): 12.3 µM | TGI (SF-295; read-out: Log TGI (converted)): 34.7 µM | GI50 (SF-539): 11.2 µM | TGI (SF-539; read-out: Log TGI (converted)): 24.5 µM | GI50 (SNB-19): 31.6 µM | TGI (SNB-19; read-out: Log TGI (converted)): > 100 µM | GI50 (SNB-75): 24 µM | TGI (SNB-75; read-out: Log TGI (converted)): 66.1 µM | GI50 (LOX IMVI): 12.6 µM | TGI (LOX IMVI; read-out: Log TGI (converted)): 47.9 µM | GI50 (SK-MEL-2): 89.1 µM | TGI (SK-MEL-2; read-out: Log TGI (converted)): > 100 µM | GI50 (SK-MEL-28): 41.7 µM | TGI (SK-MEL-28; read-out: Log TGI (converted)): > 100 µM | GI50 (UACC-257): 24 µM | TGI (UACC-257; read-out: Log TGI (converted)): 97.7 µM | GI50 (UACC-62): 12 µM | TGI (UACC-62; read-out: Log TGI (converted)): 27.5 µM | GI50 (OVCAR-3): 15.8 µM | TGI (OVCAR-3; read-out: Log TGI (converted)): 58.9 µM | GI50 (OVCAR-8): 11.5 µM | TGI (OVCAR-8; read-out: Log TGI (converted)): 38 µM | GI50 (SK-OV-3): 57.5 µM | TGI (SK-OV-3; read-out: Log TGI (converted)): > 100 µM | GI50 [1]: 26.3 µM | TGI ([1]; read-out: Log TGI (converted)): > 100 µM | GI50 (ACHN): 17 µM | TGI (ACHN; read-out: Log TGI (converted)): 34.7 µM | GI50 (CAKI-1): 12.6 µM | TGI (CAKI-1; read-out: Log TGI (converted)): 33.9 µM | GI50 (RXF 393): 19.1 µM | TGI (RXF 393; read-out: Log TGI (converted)): 67.6 µM | GI50 (PC-3): 13.5 µM | TGI (PC-3; read-out: Log TGI (converted)): 93.3 µM | GI50 (DU-145): 17.8 µM | TGI (DU-145; read-out: Log TGI (converted)): 47.9 µM | GI50 (MCF7): 29.5 µM | TGI (MCF7; read-out: Log TGI (converted)): > 100 µM | GI50 (MDA-MB-231): 16.2 µM | TGI (MDA-MB-231; read-out: Log TGI (converted)): 40.7 µM | GI50 (Hs-578T): 11.5 µM | TGI (Hs-578T; read-out: Log TGI (converted)): 45.7 µM | GI50 (MDA-MB-435): 3.98 µM | TGI (MDA-MB-435; read-out: Log TGI (converted)): 16.2 µM | GI50 (SK-MEL-5): 8.91 µM | TGI (SK-MEL-5; read-out: Log TGI (converted)): 42.7 µM
